# Experimental data: PubChem BioAssay AID328 (DTP/NCI, 2004)
# Where “and” joins values, the source holds several entries; their conditions need not be identical. Equal entries are not always repeated. Inconclusive results and toxic doses are left out.
# Tested on: BDF1 mice, P388 leukemia ip, median survival T/C
# Assay: NCI In Vivo Anticancer Drug Screen. Data for tumor model P388 Leukemia (intraperitoneal) in B6D2F1 (BDF1) mice
# Conditions: endpoint: median survival time, higher = longer survival
# How it was run: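 Vehicle-dosed animals serve as the reference; survival of compound-dosed, tumour-implanted mice is divided by it.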
# [1] = dose: 100.0 mg/kg/injection, schedule: Q04DX003 (ip), vehicle: saline with Tween-80
# [2] = dose: 200.0 mg/kg/injection, schedule: Q04DX003 (ip), vehicle: saline with Tween-80
# [3] = dose: 400.0 mg/kg/injection, schedule: Q04DX003 (ip), vehicle: saline with Tween-80
# [4] = dose: 400.0 mg/kg/injection, schedule: Q01DX001 (ip), vehicle: Klucel (hydroxypropylcellulose) (HPC)
# [5] = dose: 100.0 mg/kg/injection, schedule: Q01DX009 (ip), vehicle: saline with Tween-80
# [6] = dose: 200.0 mg/kg/injection, schedule: Q01DX009 (ip), vehicle: saline with Tween-80
# [7] = dose: 400.0 mg/kg/injection, schedule: Q01DX009 (ip), vehicle: saline with Tween-80
# [8] = dose: 50.0 mg/kg/injection, schedule: Q01DX009 (ip), vehicle: saline with Tween-80
structure (smiles),measurement,setting,value
Cc1ccc2nc(-c3ccccc3N)[nH]c2c1,T/C,[1],100 % of control
same,T/C,[2],104 % of control
same,T/C,[3],90 % of control
CC(C(Nc1ccc(C(=O)O)cc1)C(F)(F)C(F)(F)C(F)(F)F)[N+](=O)[O-] (centres undefined),T/C,"dose: 100.0 mg/kg/injection, schedule: Q01DX001 (ip), vehicle: saline with Tween-80",95 % of control
same,T/C,"dose: 200.0 mg/kg/injection, schedule: Q01DX001 (ip), vehicle: saline with Tween-80",104 % of control
same,T/C,"dose: 400.0 mg/kg/injection, schedule: Q01DX001 (ip), vehicle: saline with Tween-80",100 % of control
CCCOC1=C(N2CC2)C(=O)C(OCCC)=C(N2CC2)C1=O,T/C,"dose: 2.2 mg/kg/injection, schedule: Q04DX003 (ip), vehicle: saline with Tween-80",117 % of control
same,T/C,"dose: 5.55 mg/kg/injection, schedule: Q04DX003 (ip), vehicle: saline with Tween-80",200 % of control
same,T/C,"dose: 7.5 mg/kg/injection, schedule: Q04DX003 (ip), vehicle: saline with Tween-80",165 % of control
same,T/C,"dose: 8.33 mg/kg/injection, schedule: Q04DX003 (ip), vehicle: saline with Tween-80",163 % of control and 200 % of control
same,T/C,"dose: 12.5 mg/kg/injection, schedule: Q04DX003 (ip), vehicle: saline with Tween-80",186 % of control and 200 % of control and 218 % of control
same,T/C,"dose: 18.7 mg/kg/injection, schedule: Q04DX003 (ip), vehicle: saline with Tween-80",245 % of control and 260 % of control
same,T/C,"dose: 25.0 mg/kg/injection, schedule: Q04DX003 (ip), vehicle: saline with Tween-80",163 % of control
O=C(COc1cccc(Cl)c1Cl)Nc1cccnc1,T/C,"dose: 37.5 mg/kg/injection, schedule: Q01DX001 (ip), vehicle: saline with Tween-80",100 % of control
same,T/C,"dose: 75.0 mg/kg/injection, schedule: Q01DX001 (ip), vehicle: saline with Tween-80",104 % of control
same,T/C,"dose: 150.0 mg/kg/injection, schedule: Q01DX001 (ip), vehicle: saline with Tween-80",100 % of control
O=C(c1ccc(Cl)cc1)n1c(Cl)c(/C=N\Nc2cccc([N+](=O)[O-])c2)c2ccccc21,T/C,[4],89 % of control
COC(=O)c1cc(C(C)=O)ccc1OC(=O)c1ccccc1,T/C,[5],118 % of control
same,T/C,[1],100 % of control
same,T/C,[6],104 % of control
same,T/C,[2],100 % of control
same,T/C,[7],104 % of control
same,T/C,[3],100 % of control
O=c1nc(-c2ccccc2)nc2ccccn12,T/C,[8],101 % of control
same,T/C,[5],106 % of control
same,T/C,[6],111 % of control
Oc1ccc2ccccc2c1Cc1c(O)ccc2ccccc12,T/C,"dose: 50.0 mg/kg/injection, schedule: Q04DX003 (ip), vehicle: other",95 % of control
same,T/C,"dose: 100.0 mg/kg/injection, schedule: Q04DX003 (ip), vehicle: other",95 % of control
same,T/C,"dose: 200.0 mg/kg/injection, schedule: Q04DX003 (ip), vehicle: other",104 % of control
Clc1ccc(CBr)c2ccccc12,T/C,"dose: 12.5 mg/kg/injection, schedule: Q01DX009 (ip), vehicle: saline with Tween-80",108 % of control
same,T/C,"dose: 25.0 mg/kg/injection, schedule: Q01DX009 (ip), vehicle: saline with Tween-80",106 % of control
same,T/C,[8],110 % of control
O=[N+]([O-])/C=C\c1ccc2c(c1)OCO2,T/C,"dose: 25.0 mg/kg/injection, schedule: Q01DX009 (ip), vehicle: Klucel (hydroxypropylcellulose) (HPC)",111 % of control and 120 % of control
same,T/C,"dose: 35.0 mg/kg/injection, schedule: Q01DX009 (ip), vehicle: Klucel (hydroxypropylcellulose) (HPC)",105 % of control
same,T/C,"dose: 75.0 mg/kg/injection, schedule: Q01DX009 (ip), vehicle: Klucel (hydroxypropylcellulose) (HPC)",95 % of control
same,T/C,"dose: 100.0 mg/kg/injection, schedule: Q01DX009 (ip), vehicle: Klucel (hydroxypropylcellulose) (HPC)",100 % of control and 105 % of control
same,T/C,"dose: 100.0 mg/kg/injection, schedule: Q04DX003 (ip), vehicle: Klucel (hydroxypropylcellulose) (HPC)",104 % of control
same,T/C,"dose: 200.0 mg/kg/injection, schedule: Q04DX003 (ip), vehicle: Klucel (hydroxypropylcellulose) (HPC)",108 % of control
COc1ccc(/C=C/C(=O)c2ccc(OC)c(OC)c2)cc1OC,T/C,[5],90 % of control
same,T/C,[6],104 % of control
same,T/C,[7],118 % of control
CCCCCC(Br)C(Br)CC(Br)C(Br)CCCCCCCC(=O)O (centres undefined),T/C,"dose: 100.0 mg/kg/injection, schedule: Q01DX001 (ip), vehicle: Klucel (hydroxypropylcellulose) (HPC)",100 % of control
same,T/C,"dose: 200.0 mg/kg/injection, schedule: Q01DX001 (ip), vehicle: Klucel (hydroxypropylcellulose) (HPC)",109 % of control
same,T/C,[4],104 % of control
